# Read-outs that look alike come from different tables or passages of the source.
# What was measured:
# [1] = system: MAGI; test: Cytotoxicity in MAGI HIV-1IIIB assay; format: cell-based
# Experimental: (§1) HIV-1 and MAGI Tropism assays can be used to establish activity/cytotoxicity and synergy studies and ADME profiles of compounds are evaluated using in vitro assays such as CYP2D6/3A4 assays and metabolic stability in human and mouse liver microsomes (See Tables 2 and 3).
# [2] = system: MAGI; test: Cytotoxicity in MAGI HIV-1BaL assay; format: cell-based
# Experimental: as §1
# [3] = system: HIV-1IIIB; test: HIV MAGI assay, HIV-1IIIB; format: cell-based; conditions: for IC50 / IC90: Table 3
# Experimental: as §1
# [4] = system: HIV-1BaL; test: HIV MAGI assay, HIV-1BaL; format: cell-based; conditions: for IC50 / IC90: Table 3
# Experimental: as §1
# [5] = target: CYP3A4 (Homo sapiens (Human), UniProt P08684); test: Recombinant CYP inhibition assay (fluorometric), CYP3A4; format: in vitro ADME
# Text: (§2) Recombinant CYP Inhibition Assay: In a drug discovery program, a rapid screening for cyctochrome P450 (CYP450) inhibitors is a part of the existing standard for avoiding the development of drugs likely to give clinical pharmacokinetic drug-drug interactions and associated toxicities. A microtiter plate-based, direct fluorometric assay for the activities of the principal human drug-metabolizing enzymes, CYP2D6 and CYP3A4 can be used and these assays are rapid and compatible with existing high-throughput assay instrumentation.
# (§3) Fluorometric Enzyme Inhibition Assays: Test compounds were dissolved in 100% organic solvent (CH3CN or DMSO) to make 30 mM stock solutions. […] A 100 mM potassium phosphate buffer was prepared and adjusted to pH 7.4. The 30 mM stock solution of test and control compounds (1 mM) were further diluted in phosphate buffer (100 mM, pH 7.4) to ensure the final organic solvent content was <0.2% in the reaction. In a separate falcon tube, a 2× enzyme/substrate (E/S) solution was prepared in phosphate buffer. The final concentration of CYP2D6 (Corning) and AMMC was 10 nM and 4 μM, and CYP3A4 (Corning) and BFC was 20 nM and 40 μM, respectively. In a separate falcon tube, a 2× NADPH regenerating system (NRS) was prepared in phosphate buffer. The final concentration for each component in the assay was as follows: • CYP2D6 assay=0.008 mM NADPH, 3.3 mM glucose 6-phosphate, 0.4 U of glucose-6-phosphate dehydrogenase/mL • CYP3A4 assay=2.45 mM NADPH, 24.7 mM glucose 6-phosphate, 1.25 U of glucose-6-phosphate dehydrogenase/mL
# (§4) Both enzymatic assays were conducted in a 96-well microtiter plate (Black, Corning Costar) with a final volume of 100 μL. Preparation of the plate began with the addition of 74 μL of the E/S in the first well, and 50 μL to all subsequent wells (from 2-11). The test compounds (1 μL) were dissolved in the first well to give the first row a final volume of 75 μL. A 1:3 serial dilution of the test compound was conducted by removing 25 μL from the first well and diluting it with the second and so forth until the tenth row. Final concentrations yielded a range from 300 μM-0.01 μM. Well 11 contained no enzyme, and well 12 contained no inhibitor. Both were used as controls for background fluorescence. The plate was incubated for 10 min at 37° C. for CYP2D6, and 30 mins for CYP3A4. After incubation, the reaction was initiated by the addition of 50 μL of the 2× NRS to each well.
# (§5) Immediately (within 1 min) the fluorescence was measured using a microplate reader (KC4, BioTek). CYP2D6 was monitored at Ex/Em=410/460 nm, and CYP3A4 monitored at Ex/Em=410/538 nm in kinetic mode that scanned every 5 min for 60 mins. Data was exported and corrected for background noise by subtracting the blank from the mean value of all other columns. […]
# [6] = Mouse liver microsomes assay; format: in vitro ADME; conditions: for Relative % remaining, mouse liver microsomes: 3 μM compound, 1 mg/mL microsomes
# Experimental: Controls were processed and analyzed like test compounds. […] The relative percent remaining was calculated using: Relative % remaining=[…]=0*100. […] Metabolism data averaged duplicates.
# [7] = both, 3 μM, pH 7.4
# Experimental: Human Liver Microsomes: Pooled mixed gender human liver microsomes at a concentration of 20 mg/mL were purchased from XenoTech (Kansas City, Kans.). The vials of microsomes were stored at −80° C. and thawed on ice before each experiment. The microsomes were diluted to 1 mg/mL with 100 mM potassium phosphate buffer (pH 7.4).
# Experimental Conditions: Test compounds were weighed and dissolved in 100% acetonitrile to make 2 mM stock solutions. […] The 2 mM stock solution of test and control compounds were further diluted in sodium phosphate buffer (100 mM, pH 7.4) to 50 μM to ensure the acetonitrile content was <0.2%.
# The liver microsome assay was prepared in a 1.5 mL Eppendorf tube (Fisher Scientific) with a final volume of 1100 μL. Each reaction contained sodium phosphate buffer, liver microsomes (1 mg/mL), and test compound resulting in a final concentration of 3 μM. Following a 5 min pre-incubation of drug and microsomes in a 37° C. shaking incubator, the reaction was initiated with NADPH (110 μL). Aliquots (100 μL) were removed in duplicate at 0, 5, 10, 15, and […] and quenched in cold acetonitrile (200 μL). The aliquots were centrifuged at 12,000 g for 5 min and the supernatant removed and placed in an LCMS vial. […] A no NADPH negative control with test and control compound was conducted in singlet (150 μL) at the longest time point. Controls were processed and analyzed like test compounds.
# An Agilent Technologies LCMS system consisting of an Agilent 6120 quadrupole mass spectrometer equipped with an Agilent 1200 binary pump, degasser, and auto sampler (Santa Clara, Calif.). The analytical column used for analysis was an XDB-Eclipse Plus C18 column (4.6 mm×150 mm column; Agilent Technologies). The mobile phase for the HPLC was 50 mM ammonium formate buffer, pH 3.5 (A) and acetonitrile (B). The samples were analyzed using the following 8-minute method: A linear gradient from 10% B to 95% B over for 5 minutes, with a 3 min hold at 95%. An equilibration at 10% B for 5 min was conducted after each run. Sample injection volume was 10 μL and the flow rate was 1.0 mL/min. Single ion monitoring of the mass in positive mode was conducted the molecular weight for each compound. Each time point was assessed on the LCMS and the area, based on the extracted ion, was manually integrated.
# Calculations: The depletion of the compound was monitored as a function of time, and the area under the curve was manually integrated. The relative percent remaining was calculated using: Relative % remaining=AreaTime/AreaTime=0*100. The relative percentages for the duplicate runs were averaged and the standard deviations were calculated. Metabolism data averaged duplicates.
# [8] = target: CYP2D6 (Homo sapiens (Human), UniProt P10635); test: Recombinant CYP inhibition assay (fluorometric), CYP2D6; format: in vitro ADME
# Text: as §2, §3, §4, §5
# [9] = Human immunodeficiency virus 1, MAGI
# Chain of CYP3A4 (P08684 whole entry): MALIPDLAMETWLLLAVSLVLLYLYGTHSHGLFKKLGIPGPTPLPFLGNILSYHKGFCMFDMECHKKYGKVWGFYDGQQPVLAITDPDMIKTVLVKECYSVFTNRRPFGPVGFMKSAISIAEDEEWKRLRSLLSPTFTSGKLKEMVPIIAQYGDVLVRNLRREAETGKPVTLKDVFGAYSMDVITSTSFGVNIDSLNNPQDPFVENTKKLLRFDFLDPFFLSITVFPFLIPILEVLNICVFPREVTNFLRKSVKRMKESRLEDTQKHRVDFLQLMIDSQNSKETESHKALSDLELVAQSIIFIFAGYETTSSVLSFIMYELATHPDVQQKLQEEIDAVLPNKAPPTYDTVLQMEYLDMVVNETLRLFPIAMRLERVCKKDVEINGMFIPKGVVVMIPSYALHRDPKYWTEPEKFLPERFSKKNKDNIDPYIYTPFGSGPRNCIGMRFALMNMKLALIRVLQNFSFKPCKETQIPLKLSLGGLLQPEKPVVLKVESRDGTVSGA
# Chain of CYP2D6 (P10635 whole entry): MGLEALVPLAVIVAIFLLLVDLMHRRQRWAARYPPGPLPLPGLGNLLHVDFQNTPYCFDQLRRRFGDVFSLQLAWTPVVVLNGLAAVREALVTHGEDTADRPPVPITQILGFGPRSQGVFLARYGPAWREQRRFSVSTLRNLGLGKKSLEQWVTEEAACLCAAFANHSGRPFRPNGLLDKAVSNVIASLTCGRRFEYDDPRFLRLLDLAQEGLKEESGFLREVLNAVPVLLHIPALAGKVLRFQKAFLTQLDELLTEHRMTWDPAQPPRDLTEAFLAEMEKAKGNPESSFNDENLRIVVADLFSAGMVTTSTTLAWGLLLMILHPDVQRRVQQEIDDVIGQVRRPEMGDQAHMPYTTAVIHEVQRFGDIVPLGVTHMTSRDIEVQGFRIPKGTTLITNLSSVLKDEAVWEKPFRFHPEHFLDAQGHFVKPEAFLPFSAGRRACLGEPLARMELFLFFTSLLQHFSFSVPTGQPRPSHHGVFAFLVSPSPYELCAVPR
structure (smiles),measurement,setting,value
NCCCCN(C[C@H]1CN(CC[C@H](NC(=O)C2CCC(F)(F)CC2)c2ccccc2)CCN1Cc1cncs1)[C@H]1CCCc2cccnc21 [Compound 66],MAGI HIV-1IIIB TC50,[1]; Table 3,>100 µM
same,MAGI HIV-1BaL TC90,"[2]; Table 3, head prints TC90",>100 µM
same,IC50,[3]; [9],12.4 µM
same,IC90,[3]; [9],65.8 µM
same,IC50,[4]; [9],0.33 µM
same,IC90,[4]; [9],4.38 µM
"NCCCCN(CC1NC[C@@H]2CC[C@H]1N2CC[C@H](NC(=O)C1CCC(F)(F)CC1)c1ccccc1)[C@H]1CCCc2cccnc21 (single isomer, unassigned) [LRf isomer 95]",MAGI HIV-1IIIB TC50,[1]; human,>10.0 µM
same,MAGI HIV-1BaL TC90,[2]; human,>100 µM
same,IC50,[3],> 10 µM
same,IC90,[3],> 10 µM
same,IC50,[4],9.36 µM
same,IC90,[4],> 100 µM
"NCCCCN(C[C@H]1CN(CC[C@H](NC(=O)C2CCC(F)(F)CC2)c2ccccc2)CCN1Cc1ccncc1)[C@H]1CCCc2cccnc21 [Compound 81, N—((S)-3-((R)-3-(((4-aminobutyl)((S)-5,6,7,8-tetrahydroquinolin-8-yl)amino)methyl)-4-(pyridin-4-ylmethyl)piperazin-1-yl)-1-phenylpropyl)-4,4-difluorocyclohexane-1-carboxamide]",MAGI HIV-1IIIB TC50,[1]; Table 3,>100 µM
same,MAGI HIV-1BaL TC90,"[2]; Table 3, head prints TC90",>100 µM
same,IC50,[3]; [9],3.49 µM
same,IC90,[3]; [9],52.7 µM
same,IC50,[4]; [9],0.95 µM
same,IC90,[4]; [9],22.7 µM
NCCCCN(C[C@@H]1CN(CC[C@H](NC(=O)C2CCC(F)(F)CC2)c2ccccc2)CCN1)[C@H]1CCCc2cccnc21 [Compound 1],IC50,[5]; Table 1,> 20 µM
same,"Relative % remaining, mouse liver microsomes",[6]; 10 min,116 ± 3.1%
same,"Relative % remaining, mouse liver microsomes",[6]; 30 min,93 ± 8.9%
same,MLM,"[6]; @ 10 min, Table 1",100% @ 10 min
same,EC50,"[3]; Human immunodeficiency virus 1, MAGI, Table 1, read-out: HIV MAGI EC50 HIVIIIB",0.22 µM
same,"Relative % remaining, human liver microsomes",[7]; 10 min,58 ± 4.9%
same,"Relative % remaining, human liver microsomes",[7]; 0.5 h,25 ± 0.1%
same,HLM,"[7]; human, microsomes, 10 min",58% @ 10 min
same,EC50,"[4]; Human immunodeficiency virus 1, MAGI, Table 1, read-out: HIV MAGI EC50 HIVBa-L",2.6 µM
same,IC50,[8]; Table 1,> 20 µM
CN1CCN(CC[C@H](NC(=O)C2CCC(F)(F)CC2)c2ccccc2)C[C@@H]1CN(CCCCN)[C@H]1CCCc2cccnc21 [Compound 68],MAGI HIV-1IIIB TC50,[1]; Table 3,>100 µM
same,MAGI HIV-1BaL TC90,"[2]; Table 3, head prints TC90",>100 µM
same,IC50,[3]; [9],10.2 µM
same,IC90,[3]; [9],70.2 µM
same,IC50,[4]; [9],4.16 µM
same,IC90,[4]; [9],66.8 µM
"NCCCCN(C[C@H]1CN(CC[C@H](NC(=O)C2CCC(F)(F)CC2)c2ccccc2)CCN1Cc1cnc[nH]1)[C@H]1CCCc2cccnc21 [Compound 77, N—((S)-3-((R)-4-((1H-imidazol-5-yl)methyl)-3-(((4-aminobutyl)((S)-5,6,7,8-tetrahydroquinolin-8-yl)amino)methyl)piperazin-1-yl)-1-phenylpropyl)-4,4-difluorocyclohexane-1-carboxamide]",MAGI HIV-1IIIB TC50,[1]; Table 3,>100 µM
same,MAGI HIV-1BaL TC90,"[2]; Table 3, head prints TC90",>100 µM
same,IC50,[3]; [9],0.002 µM
same,IC90,[3]; [9],0.009 µM
same,IC50,[4]; [9],1.54 µM
same,IC90,[4]; [9],23 µM
"NCCCCN(Cc1nc2ccccc2[nH]1)[C@H]1CCCc2cccnc21 [AMD11070, reference compound]",Inhibition of P450 3A4,[5]; at 1 μM,35%
same,"inhibition at 60 min, 1 µM","[8]; human, recombinant CYP2D6, pH 7.4, probe AMMC (4 μM), at 1 μM, read-out: Inhibition of P450 2D6",100%
"Cn1cncc1CN1CCN(CC[C@H](NC(=O)C2CCC(F)(F)CC2)c2ccccc2)C[C@@H]1CN(CCCCN)[C@H]1CCCc2cccnc21 [Compound 79, N—((S)-3-((R)-3-(((4-aminobutyl)((S)-5,6,7,8-tetrahydroquinolin-8-yl)amino)methyl)-4-((1-methyl-1H-imidazol-5-yl)methyl)piperazin-1-yl)-1-phenylpropyl)-4,4-difluorocyclohexane-1-carboxamide]",MAGI HIV-1IIIB TC50,[1]; Table 3,>100 µM
same,MAGI HIV-1BaL TC90,"[2]; Table 3, head prints TC90",>100 µM
same,IC50,[3]; [9],2.58 µM
same,IC90,[3]; [9],36.5 µM
same,IC50,[4]; [9],0.66 µM
same,IC90,[4]; [9],7.35 µM
"NCCCCN(C[C@H]1CN(CC[C@H](NC(=O)C2CCC(F)(F)CC2)c2ccccc2)CCN1CC1COC1)[C@H]1CCCc2cccnc21 [Compound 75, N—((S)-3-((R)-3-(((4-aminobutyl)((S)-5,6,7,8-tetrahydroquinolin-8-yl)amino)methyl)-4-(oxetan-3-ylmethyl)piperazin-1-yl)-1-phenylpropyl)-4,4-difluorocyclohexane-1-carboxamide]",MAGI HIV-1IIIB TC50,[1]; Table 3,>100 µM
same,MAGI HIV-1BaL TC90,"[2]; Table 3, head prints TC90",>100 µM
same,IC50,[3]; [9],6.61 µM
same,IC90,[3]; [9],68.5 µM
same,IC50,[4]; [9],2.51 µM
same,IC90,[4]; [9],97.1 µM
"NCCCCN(CC1NC[C@@H]2CC[C@H]1N2CC[C@H](NC(=O)C1CCC(F)(F)CC1)c1ccccc1)[C@H]1CCCc2cccnc21 (single isomer, unassigned) [URf isomer 95]",MAGI HIV-1IIIB TC50,[1]; human,>10.0 µM
same,MAGI HIV-1BaL TC90,[2]; human,>100 µM
same,IC50,[3],0.17 µM
same,IC90,[3],0.9 µM
same,IC50,[4],0.82 µM
same,IC90,[4],8.96 µM
NCCCCN(C[C@H]1CN(CC[C@H](NC(=O)C2CCC(F)(F)CC2)c2ccccc2)CCN1Cc1cnco1)[C@H]1CCCc2cccnc21 [Compound 67],MAGI HIV-1IIIB TC50,[1]; Table 3,>100 µM
same,MAGI HIV-1BaL TC90,"[2]; Table 3, head prints TC90",>100 µM
same,IC50,[3]; [9],3.19 µM
same,IC90,[3]; [9],44.6 µM
same,IC50,[4]; [9],2.33 µM
same,IC90,[4]; [9],36.7 µM
